Test results as given in PubChem BioAssay AID2060501 (Molecular Pharmacology Branch, DTP, NCI, 2025).

System: 282377-053-R-J1-PDC complex spheroids, viability
Experiment: Anticancer human tumor 282377-053-R-J1-PDC patient-derived colon adenocarcinoma cell line growth inhibition [GQUAD]
Conditions: for IC50: curve of first compound; for viability, T/C: stronger effect = lower value
Summary of the method: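 Multi-cell-type spheroids of tumor cells with HUVEC and mesenchymal stem cells, treated with drug combinations. Concentrations descend in half-log steps from near clinical Cmax, or from 10 microM where Cmax is unknown; viability read-out.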

[1] = second compound 0.0316 µM, first compound 0.0316 µM
[2] = second compound 0.0316 µM, first compound 0.1 µM
[3] = second compound 0.0316 µM, first compound 0.316 µM
[4] = second compound 0.0316 µM, first compound 1 µM
[5] = second compound 0.0316 µM, first compound 3.16 µM
[6] = second compound 0.0316 µM, first compound 10 µM
[7] = second compound 0.1 µM, first compound 0.0316 µM
[8] = second compound 0.1 µM, first compound 0.1 µM
[9] = second compound 0.1 µM, first compound 0.316 µM
[10] = second compound 0.1 µM, first compound 1 µM
[11] = second compound 0.1 µM, first compound 3.16 µM
[12] = second compound 0.1 µM, first compound 10 µM
[13] = second compound 0.316 µM, first compound 0.0316 µM
[14] = second compound 0.316 µM, first compound 0.1 µM
[15] = second compound 0.316 µM, first compound 0.316 µM
[16] = second compound 0.316 µM, first compound 1 µM
[17] = second compound 0.316 µM, first compound 3.16 µM
[18] = second compound 0.316 µM, first compound 10 µM
[19] = second compound 1 µM, first compound 0.0316 µM
[20] = second compound 1 µM, first compound 0.1 µM
[21] = second compound 1 µM, first compound 0.316 µM
[22] = second compound 1 µM, first compound 1 µM
[23] = second compound 1 µM, first compound 3.16 µM
[24] = second compound 1 µM, first compound 10 µM
[25] = second compound 3.16 µM, first compound 0.0316 µM
[26] = second compound 3.16 µM, first compound 0.1 µM
[27] = second compound 3.16 µM, first compound 0.316 µM
[28] = second compound 3.16 µM, first compound 1 µM
[29] = second compound 3.16 µM, first compound 3.16 µM
[30] = second compound 3.16 µM, first compound 10 µM
[31] = second compound 10 µM, first compound 0.0316 µM
[32] = second compound 10 µM, first compound 0.1 µM
[33] = second compound 10 µM, first compound 0.316 µM
[34] = second compound 10 µM, first compound 1 µM
[35] = second compound 10 µM, first compound 3.16 µM
[36] = second compound 10 µM, first compound 10 µM
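Also: spheroids exposed to compounds for 7 days before readout.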
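For viability, T/C in this document: percent of vehicle DMSO control viability with 100% = untreated-like growth.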

In the case of `COc1cc(C2c3cc4c(cc3C(OC3OC5COC(C)OC5C(O)C3O)C3COC(=O)C23)OCO4)cc(OC)c1O` (stereo unspecified) + CN(C)c1ccc(Nc2c3ccc(NC(=O)CCN4CCCC4)cc3nc3cc(NC(=O)CCN4CCCC4)ccc23)cc1, the IC50 (second compound 0.0316 µM) is reported as greater than 10 µM, the IC50 (second compound 0.1 µM) is reported as greater than 10 µM and the IC50 (second compound 0.316 µM) is reported as greater than 10 µM. It also gave an IC50 (second compound 1 µM) greater than 10 µM, an IC50 (second compound 3.16 µM) greater than 10 µM and an IC50 (second compound 10 µM) greater than 10 µM. The viability, T/C [1] was 94.2%, the viability, T/C [2] was 94.2% and the viability, T/C [3] was 86.6%. For the same compound, the viability, T/C [4] was 117%, the viability, T/C [5] was 86.7% and the viability, T/C [6] was 68.2%. It also gave a viability, T/C [7] of 105%, a viability, T/C [8] of 85.4% and a viability, T/C [9] of 101%. It also gave a viability, T/C [10] of 86%, a viability, T/C [11] of 75% and a viability, T/C [12] of 67.6%. The viability, T/C [13] was 108%, the viability, T/C [14] was 93% and the viability, T/C [15] was 99%. For the same compound, the viability, T/C [16] was 95.6%, the viability, T/C [17] was 97.7% and the viability, T/C [18] was 66.4%. It also gave a viability, T/C [19] of 97.4%, a viability, T/C [20] of 67.8% and a viability, T/C [21] of 114%. It also gave a viability, T/C [22] of 105%, a viability, T/C [23] of 89.2% and a viability, T/C [24] of 60.8%. It also gave a viability, T/C [25] of 94.7%, a viability, T/C [26] of 90% and a viability, T/C [27] of 120%. The viability, T/C [28] was 106%, the viability, T/C [29] was 86% and the viability, T/C [30] was 66.8%. For the same compound, the viability, T/C [31] was 90.3%, the viability, T/C [32] was 90.4% and the viability, T/C [33] was 105%. The viability, T/C [34] was 105%, the viability, T/C [35] was 90.4% and the viability, T/C [36] was 64.3%.

Work on `O=C(c1cc(Cc2n[nH]c(=O)c3ccccc23)ccc1F)N1CCN(C(=O)C2CC2)CC1` + CN(C)c1ccc(Nc2c3ccc(NC(=O)CCN4CCCC4)cc3nc3cc(NC(=O)CCN4CCCC4)ccc23)cc1 yielded an IC50 (second compound 0.0316 µM) greater than 10 µM, an IC50 (second compound 0.1 µM) greater than 10 µM and an IC50 (second compound 0.316 µM) greater than 10 µM. It also gave an IC50 (second compound 1 µM) greater than 10 µM, an IC50 (second compound 3.16 µM) greater than 10 µM and an IC50 (second compound 10 µM) greater than 10 µM. For the same compound, the viability, T/C [1] was 102%, the viability, T/C [2] was 91.5% and the viability, T/C [3] was 94.2%. The viability, T/C [4] was 97.4%, the viability, T/C [5] was 105% and the viability, T/C [6] was 96.8%. For the same compound, the viability, T/C [7] was 128%, the viability, T/C [8] was 107% and the viability, T/C [9] was 96.9%. The viability, T/C [10] was 100%, the viability, T/C [11] was 89.7% and the viability, T/C [12] was 90.7%. The viability, T/C [13] was 102%, the viability, T/C [14] was 92.6% and the viability, T/C [15] was 83.4%. It also gave a viability, T/C [16] of 81.5%, a viability, T/C [17] of 91.2% and a viability, T/C [18] of 109%. It also gave a viability, T/C [19] of 108%, a viability, T/C [20] of 88% and a viability, T/C [21] of 88.1%. It also gave a viability, T/C [22] of 74.9%, a viability, T/C [23] of 74.7% and a viability, T/C [24] of 92.4%. The viability, T/C [25] was 91.6%, the viability, T/C [26] was 83.5% and the viability, T/C [27] was 99.3%. The viability, T/C [28] was 101%, the viability, T/C [29] was 86.5% and the viability, T/C [30] was 89.5%. The viability, T/C [31] was 99%, the viability, T/C [32] was 88.4% and the viability, T/C [33] was 105%. The viability, T/C [34] was 75.9%, the viability, T/C [35] was 108% and the viability, T/C [36] was 119%.

With `Cc1cccc(N(C)C(=O)C2C(O)CCN2c2nc(C)cc(C(F)(F)F)c2C#N)c1` (stereo unspecified) + Cc1[nH]c2ccc(F)cc2c1-c1nc2c3cccnc3c3ncccc3c2[nH]1 the IC50 (second compound 0.0316 µM) was greater than 10 µM, the IC50 (second compound 0.1 µM) was greater than 10 µM and the IC50 (second compound 0.316 µM) was greater than 10 µM. The IC50 (second compound 1 µM) was greater than 10 µM, the IC50 (second compound 3.16 µM) was greater than 10 µM and the IC50 (second compound 10 µM) was 0.567 µM. The viability, T/C [1] was 89.3%, the viability, T/C [2] was 94.1% and the viability, T/C [3] was 113%. For the same compound, the viability, T/C [4] was 95.9%, the viability, T/C [5] was 100% and the viability, T/C [6] was 76.2%. For the same compound, the viability, T/C [7] was 95.7%, the viability, T/C [8] was 91.3% and the viability, T/C [9] was 83.5%. The viability, T/C [10] was 109%, the viability, T/C [11] was 82.8% and the viability, T/C [12] was 94.6%. The viability, T/C [13] was 77.2%, the viability, T/C [14] was 100% and the viability, T/C [15] was 92.1%. The viability, T/C [16] was 92.8%, the viability, T/C [17] was 93% and the viability, T/C [18] was 114%. It also gave a viability, T/C [19] of 86%, a viability, T/C [20] of 88.3% and a viability, T/C [21] of 94.6%. It also gave a viability, T/C [22] of 109%, a viability, T/C [23] of 86.2% and a viability, T/C [24] of 89.6%. For the same compound, the viability, T/C [25] was 78%, the viability, T/C [26] was 73% and the viability, T/C [27] was 66.8%. It also gave a viability, T/C [28] of 65.7%, a viability, T/C [29] of 75.5% and a viability, T/C [30] of 79.3%. It also gave a viability, T/C [31] of 47%, a viability, T/C [32] of 56.4% and a viability, T/C [33] of 66.4%. The viability, T/C [34] was 43.6%, the viability, T/C [35] was 36.8% and the viability, T/C [36] was 35%.
